Patent publication US20260337212A1, “IP4-4,6 SUBSTITUTED DERIVATIVE COMPOUNDS FOR USE IN THE TREATMENT, INHIBITION OF PROGRESSION, AND PREVENTION OF ECTOPIC CALCIFICATION” (SANIFIT THERAPEUTICS, S.A., priority 2022, published 2026)

Test: Rat calcinosis cutis/calciphylaxis model (vitamin D3 and FeCl3): skin plaque calcification
Type: in vivo, Sprague Dawley rat
Conditions: for Skin plaque % inhibition of calcification: FeCl3 0.5 mg/kg
Procedure: The dose-response efficacy of IP4-4,6 derivatives in the prevention and treatment of calcinosis cutis and calciphylaxis (CUA) induced by vitamin D3 and FeCl3 in a rat model was used. The model evaluated the effects of Compound 27 and IP6 on the formation of calcified skin plaques in rats for a duration of 8 days. Animals were sensitized at low concentration (LC, 35,000 IU/kg) and high concentration (HC, 50,000 IU/kg) doses of vitamin D3. A FeCl3 solution (0.5 mg/kg) was used as challenger to induce the formation of skin plaques. All animals were weighed every day before treatment.
Eighty-six male Sprague Dawley (SD) rats (Envigo Corp., Huntingdon, GB) weighing approximately 250-300 g were used. The animals were fed with a standard LASQCdiet® Rod14-H diet (LASvendi, Soest, DE). The animals were divided in 8 groups, 6 to 12 animals per group, as follows:
The following solutions were prepared: (a) 17,500 IU/mL (LC) and 25,000 IU/mL (HC) vitamin D3 (cholecalciferol, Duphafral D3 1000; Zoetis Inc., Parsippany, NJ, US), (b) 0.3 mg/mL FeCl3 (FeCl3·6H2O, 99%, Scharlab S. L., Barcelona, E S), (c) 30 mg/mL IP6 (660 g/mol phytic acid, pH 6.5-7.7), and (d) 15, 30, and 50 mg/mL Compound 27 (754.45 g/mol free acid, pH 6.5-7.7). All solutions were prepared in a 0.9% (w/v) physiological saline NaCl medium. An application volume of 2 mL/kg was employed.
Group 1—Control (sham), 6 animals. Animals in group 1 were administered subcutaneously physiological saline (0.9% (w/v) NaCl solution daily from D1 to D3 in the interscapular space, and with one saline 0.9% injection at each of the two ventral sites in the thorax on D4. Animals in group 1 were not administered Vit D or FeCl3 solutions.
(§1) Group 2—Physiological saline solution low concentration (Vehicle LC): Vit D 35,000 IU/kg, 0.5 mg/kg FeCl3 solution, 10 animals. Vit D at dose 35,000 IU/kg was administered subcutaneously x 3 consecutive days (D1, D2, D3), and one 0.5 mg/kg FeCl3 injection at each of the two ventral sites in the thorax on D4. This group received a daily saline 0.9% s.c. treatment (D1 to D8).
(§2) Group 3—Compound 27 60 mg/kg LC: Vit D 35,000 IU/kg, 0.5 mg/kg FeCl3, 10 animals. Vit D at dose 35,000 IU/kg was administered subcutaneously x 3 consecutive days (D1, D2, D3), and one 0.5 mg/kg FeCl3 injection at each of the two ventral sites in the thorax on D4. This group received a daily Compound 27 s.c. treatment at 60 mg/kg dose (D1 to D8).
as §1, with “4—Physiological” for “2—Physiological”, “high” for “low”, “HC):” for “LC):”, “50,000” for “35,000”, “FeCl3, 12” for “FeCl3 solution, 10”
as §2, with “5—IP6” for “3—Compound 27”, “HC,” for “LC:”, “50,000” for “35,000”, “12” for “10”, “IP6” for “Compound 27”
as §2, with “6—Compound” for “3—Compound”, “30” for “60”, “HC,” for “LC:”, “50,000” for “35,000”, “12” for “10”
as §2, with “7—Compound” for “3—Compound”, “[…],” for “LC:”, “50,000” for “35,000”, “12” for “10”
Group 8—Compound 27 100 mg/kg HC, Vit D 50,000 IU/kg, 0.5 mg/kg FeCl3, 12 animals. […]

## 4,6-O-bis(5-acetamidopentyl)-myo-inositol-1,2,3,5-tetrakis(phosphate) octasodium salt [Compound 27]
30 mg/kg s.c. daily D1-D8, HC (vitamin D3 50,000 IU/kg)
  Skin plaque % inhibition of calcification: 96.8 ± 0.7 %
60 mg/kg s.c. daily D1-D8, HC (vitamin D3 50,000 IU/kg)
  Skin plaque % inhibition of calcification: 98.2 ± 0.1 %
60 mg/kg s.c. daily D1-D8, LC (vitamin D3 35,000 IU/kg)
  Skin plaque % inhibition of calcification: 95.7 ± 0.9 %
100 mg/kg s.c. daily D1-D8, HC (vitamin D3 50,000 IU/kg)
  Skin plaque % inhibition of calcification: 98.6 ± 0.1 %
30, 60, 100 mg/kg s.c.
  Inhibition of the formation of skin plaque: inhibits the formation of skin plaque in rats in a dose-response manner
Same dose (60 mg/kg)
  Degree of inhibition of skin plaque calcification compared with IP6: higher than that reached by IP6 at the same dose
